Results: the supplement of paper PMC12076712

Assays:
Assay in all cases: pIC50, kinobeads binding competition
SRPK1 = SRPK1 (UniProt Q96SB4)
How it was run: (§1)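 Live Jurkat cells were treated with nine compound concentrations (top 30 μM, 1:4 steps) or DMSO for 60 min at 37 °C before lysis. Alternatively, Jurkat lysate or a 1:1:1:1 HEK293/K-562/HepG2/placenta lysate mix was incubated with nine concentrations (top 30 μM, 1:5 steps) for 60 min at 4 °C. Kinobeads-bound proteins were digested and quantified by TMT10 LC-MS/MS. pIC50 came from logistic dose-response fits (R drc package) of fold changes versus DMSO, in biological duplicates.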

RPS6KA6 = RPS6KA6 (UniProt Q9UK32); conditions: cell material: Lysate mix
How it was run: as §1

TNIK = TNIK (UniProt Q9UKE5)
How it was run: as §1

PRKACB = PRKACB (UniProt P22694)
How it was run: as §1

MET = MET (UniProt P08581); conditions: cell material: Lysate mix
How it was run: as §1

UniProt Q02750 = target: UniProt Q02750
How it was run: as §1

UniProt Q00537 = target: UniProt Q00537
How it was run: as §1

UniProt Q15303 = conditions: cell material: Lysate mix
How it was run: as §1

UniProt Q16512 = target: UniProt Q16512
How it was run: as §1

PRPF4B = PRPF4B (UniProt Q13523); conditions: cell material: Lysate mix
How it was run: as §1

UniProt Q9Y2H1 = target: UniProt Q9Y2H1
How it was run: as §1

UniProt Q04912 = conditions: cell material: Lysate mix
How it was run: as §1

RPS6KA4 = RPS6KA4 (UniProt O75676)
How it was run: as §1

UniProt O95747 = target: UniProt O95747
How it was run: as §1

CLK3 = CLK3 (UniProt P49761)
How it was run: as §1

IRAK3 = target: T1, IRAK3 (UniProt Q9Y616); conditions: cell material: Lysate mix
T1 sequence (whole entry): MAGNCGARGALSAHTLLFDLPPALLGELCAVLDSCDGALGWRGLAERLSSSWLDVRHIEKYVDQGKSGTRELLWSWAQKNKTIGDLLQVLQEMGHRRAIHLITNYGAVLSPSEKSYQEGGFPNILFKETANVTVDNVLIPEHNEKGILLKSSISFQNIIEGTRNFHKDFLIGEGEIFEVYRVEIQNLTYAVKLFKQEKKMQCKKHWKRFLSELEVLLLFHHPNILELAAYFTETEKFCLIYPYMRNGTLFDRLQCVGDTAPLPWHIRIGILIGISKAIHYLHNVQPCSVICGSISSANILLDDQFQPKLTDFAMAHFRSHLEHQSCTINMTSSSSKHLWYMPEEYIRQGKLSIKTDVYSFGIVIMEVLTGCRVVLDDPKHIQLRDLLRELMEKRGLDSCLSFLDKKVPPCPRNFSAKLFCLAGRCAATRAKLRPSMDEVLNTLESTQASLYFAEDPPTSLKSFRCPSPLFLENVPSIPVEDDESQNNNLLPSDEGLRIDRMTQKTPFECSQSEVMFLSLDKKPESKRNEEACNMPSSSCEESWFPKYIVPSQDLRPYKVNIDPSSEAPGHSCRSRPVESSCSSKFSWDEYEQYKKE
How it was run: as §1

UniProt P45984 = target: UniProt P45984
How it was run: as §1

KIT = KIT (UniProt P10721); conditions: cell material: Lysate mix
How it was run: as §1

UniProt P16234 = conditions: cell material: Lysate mix
How it was run: as §1

CASK = target: T2, CASK (UniProt O14936); conditions: cell material: Lysate mix
T2 sequence (whole entry): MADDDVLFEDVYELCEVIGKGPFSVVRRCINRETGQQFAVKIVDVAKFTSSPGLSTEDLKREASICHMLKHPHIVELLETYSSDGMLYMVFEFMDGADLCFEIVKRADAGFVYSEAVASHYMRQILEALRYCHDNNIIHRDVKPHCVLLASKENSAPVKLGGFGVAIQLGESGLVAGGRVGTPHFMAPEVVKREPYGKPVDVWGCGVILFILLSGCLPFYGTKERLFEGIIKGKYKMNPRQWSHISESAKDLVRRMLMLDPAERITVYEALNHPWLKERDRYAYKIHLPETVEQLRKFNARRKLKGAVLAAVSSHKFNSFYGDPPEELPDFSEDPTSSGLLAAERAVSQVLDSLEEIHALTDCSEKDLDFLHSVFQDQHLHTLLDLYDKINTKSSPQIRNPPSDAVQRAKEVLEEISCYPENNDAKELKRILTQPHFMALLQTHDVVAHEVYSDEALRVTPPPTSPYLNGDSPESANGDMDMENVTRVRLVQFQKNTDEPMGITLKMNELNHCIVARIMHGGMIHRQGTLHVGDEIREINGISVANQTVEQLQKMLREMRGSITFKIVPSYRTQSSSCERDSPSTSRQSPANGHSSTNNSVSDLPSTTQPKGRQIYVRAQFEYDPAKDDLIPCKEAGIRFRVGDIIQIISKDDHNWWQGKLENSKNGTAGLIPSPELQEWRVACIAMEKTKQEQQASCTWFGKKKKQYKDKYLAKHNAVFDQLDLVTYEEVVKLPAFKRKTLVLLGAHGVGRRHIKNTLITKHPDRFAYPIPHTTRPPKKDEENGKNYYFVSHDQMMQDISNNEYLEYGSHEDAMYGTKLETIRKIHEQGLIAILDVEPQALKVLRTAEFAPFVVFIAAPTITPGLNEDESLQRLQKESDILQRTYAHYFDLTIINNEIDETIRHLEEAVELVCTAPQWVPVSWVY
How it was run: as §1

CDC7 = CDC7 (UniProt O00311); conditions: cell material: Lysate mix
How it was run: as §1

UniProt Q8NEB9 = conditions: cell material: Jurkat cells
How it was run: as §1

AXL = AXL (UniProt P30530); conditions: cell material: Lysate mix
How it was run: as §1

AKT2 = AKT2 (UniProt P31751); conditions: cell material: Jurkat cells
How it was run: as §1

Chain of UniProt Q15303 (Q15303 whole entry): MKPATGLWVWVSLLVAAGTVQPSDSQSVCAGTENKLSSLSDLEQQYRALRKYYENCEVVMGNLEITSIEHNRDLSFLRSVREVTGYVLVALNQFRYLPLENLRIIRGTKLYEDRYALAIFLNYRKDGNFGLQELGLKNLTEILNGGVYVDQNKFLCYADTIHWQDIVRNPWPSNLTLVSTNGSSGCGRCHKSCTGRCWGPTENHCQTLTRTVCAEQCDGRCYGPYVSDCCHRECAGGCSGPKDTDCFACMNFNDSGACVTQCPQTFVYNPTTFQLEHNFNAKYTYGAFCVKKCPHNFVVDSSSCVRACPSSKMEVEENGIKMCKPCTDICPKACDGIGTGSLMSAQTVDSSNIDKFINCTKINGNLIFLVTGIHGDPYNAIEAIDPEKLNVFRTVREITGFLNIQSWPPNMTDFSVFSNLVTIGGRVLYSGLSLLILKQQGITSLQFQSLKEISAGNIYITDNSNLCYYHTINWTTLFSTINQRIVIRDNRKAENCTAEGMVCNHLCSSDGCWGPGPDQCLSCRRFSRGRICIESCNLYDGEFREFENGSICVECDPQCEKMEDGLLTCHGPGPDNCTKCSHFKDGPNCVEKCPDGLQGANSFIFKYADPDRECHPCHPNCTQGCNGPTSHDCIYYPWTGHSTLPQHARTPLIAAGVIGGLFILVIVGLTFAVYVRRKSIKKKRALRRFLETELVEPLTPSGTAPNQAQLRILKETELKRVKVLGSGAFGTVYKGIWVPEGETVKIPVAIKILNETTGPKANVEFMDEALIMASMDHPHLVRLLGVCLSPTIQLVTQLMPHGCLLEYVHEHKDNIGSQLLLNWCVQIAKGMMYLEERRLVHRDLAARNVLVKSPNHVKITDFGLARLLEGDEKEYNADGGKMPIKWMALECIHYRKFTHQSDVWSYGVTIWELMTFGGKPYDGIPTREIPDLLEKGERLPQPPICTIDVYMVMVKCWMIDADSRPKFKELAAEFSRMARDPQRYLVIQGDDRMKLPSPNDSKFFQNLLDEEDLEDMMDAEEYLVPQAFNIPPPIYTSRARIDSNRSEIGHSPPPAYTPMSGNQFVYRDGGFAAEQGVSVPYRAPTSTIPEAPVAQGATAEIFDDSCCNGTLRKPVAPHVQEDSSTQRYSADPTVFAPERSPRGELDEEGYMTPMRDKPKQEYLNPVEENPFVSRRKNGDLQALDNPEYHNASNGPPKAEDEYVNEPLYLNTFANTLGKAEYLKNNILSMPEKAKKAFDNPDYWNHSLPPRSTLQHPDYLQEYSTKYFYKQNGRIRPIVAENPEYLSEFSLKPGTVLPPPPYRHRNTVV
Chain of RPS6KA4 (O75676 whole entry, looked up): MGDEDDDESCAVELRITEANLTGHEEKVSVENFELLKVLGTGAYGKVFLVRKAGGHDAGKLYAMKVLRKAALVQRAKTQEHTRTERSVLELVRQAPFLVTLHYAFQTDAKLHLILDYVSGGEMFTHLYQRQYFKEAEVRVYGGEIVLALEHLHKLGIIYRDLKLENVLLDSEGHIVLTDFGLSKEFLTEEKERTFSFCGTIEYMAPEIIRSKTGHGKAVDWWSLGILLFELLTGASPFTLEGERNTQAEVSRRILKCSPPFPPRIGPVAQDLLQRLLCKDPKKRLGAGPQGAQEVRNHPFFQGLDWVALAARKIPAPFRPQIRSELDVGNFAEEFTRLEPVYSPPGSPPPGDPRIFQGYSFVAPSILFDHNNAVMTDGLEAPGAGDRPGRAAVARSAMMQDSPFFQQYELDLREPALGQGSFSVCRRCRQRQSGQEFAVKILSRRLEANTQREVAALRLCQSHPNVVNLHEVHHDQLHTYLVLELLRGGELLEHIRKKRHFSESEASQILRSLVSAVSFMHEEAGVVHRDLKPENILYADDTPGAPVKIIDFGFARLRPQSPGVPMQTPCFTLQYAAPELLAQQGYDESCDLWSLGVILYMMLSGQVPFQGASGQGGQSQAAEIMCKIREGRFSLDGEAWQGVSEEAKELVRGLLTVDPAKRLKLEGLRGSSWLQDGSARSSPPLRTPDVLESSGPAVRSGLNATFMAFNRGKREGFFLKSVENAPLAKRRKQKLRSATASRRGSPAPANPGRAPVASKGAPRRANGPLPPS
Chain of RPS6KA6 (Q9UK32 whole entry): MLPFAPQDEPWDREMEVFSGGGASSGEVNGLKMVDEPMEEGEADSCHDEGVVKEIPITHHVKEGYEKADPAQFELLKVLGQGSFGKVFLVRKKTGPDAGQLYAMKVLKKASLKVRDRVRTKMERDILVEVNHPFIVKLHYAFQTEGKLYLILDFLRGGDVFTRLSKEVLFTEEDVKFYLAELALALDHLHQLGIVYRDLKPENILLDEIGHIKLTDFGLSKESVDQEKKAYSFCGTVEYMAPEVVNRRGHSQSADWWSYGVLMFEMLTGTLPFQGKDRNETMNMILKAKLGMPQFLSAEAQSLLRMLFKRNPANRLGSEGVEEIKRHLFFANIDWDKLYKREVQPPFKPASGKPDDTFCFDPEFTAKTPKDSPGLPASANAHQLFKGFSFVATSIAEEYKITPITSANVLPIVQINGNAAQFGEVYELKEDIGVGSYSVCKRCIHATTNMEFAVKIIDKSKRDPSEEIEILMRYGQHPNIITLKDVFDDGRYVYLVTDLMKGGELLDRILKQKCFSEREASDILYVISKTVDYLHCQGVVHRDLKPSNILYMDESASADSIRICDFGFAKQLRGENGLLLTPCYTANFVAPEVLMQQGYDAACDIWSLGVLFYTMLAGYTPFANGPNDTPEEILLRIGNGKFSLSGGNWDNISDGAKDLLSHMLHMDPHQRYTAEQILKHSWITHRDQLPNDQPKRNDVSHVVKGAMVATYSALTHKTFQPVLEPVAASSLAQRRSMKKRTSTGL
Chain of UniProt Q00537 (Q00537 whole entry, looked up): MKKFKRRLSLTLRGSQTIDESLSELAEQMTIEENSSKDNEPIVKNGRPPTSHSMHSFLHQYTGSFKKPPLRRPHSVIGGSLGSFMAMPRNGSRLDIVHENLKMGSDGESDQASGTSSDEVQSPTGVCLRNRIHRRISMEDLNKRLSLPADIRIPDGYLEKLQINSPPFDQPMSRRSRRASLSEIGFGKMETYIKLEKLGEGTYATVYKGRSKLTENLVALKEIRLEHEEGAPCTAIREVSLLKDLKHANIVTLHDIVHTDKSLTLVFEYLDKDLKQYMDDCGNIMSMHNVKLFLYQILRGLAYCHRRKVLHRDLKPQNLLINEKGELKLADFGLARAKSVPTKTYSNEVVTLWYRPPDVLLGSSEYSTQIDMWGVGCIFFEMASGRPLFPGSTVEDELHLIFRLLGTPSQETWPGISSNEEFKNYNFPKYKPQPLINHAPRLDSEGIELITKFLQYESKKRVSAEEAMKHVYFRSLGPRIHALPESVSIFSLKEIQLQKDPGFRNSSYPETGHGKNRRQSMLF
Chain of UniProt Q9Y2H1 (Q9Y2H1 whole entry, looked up): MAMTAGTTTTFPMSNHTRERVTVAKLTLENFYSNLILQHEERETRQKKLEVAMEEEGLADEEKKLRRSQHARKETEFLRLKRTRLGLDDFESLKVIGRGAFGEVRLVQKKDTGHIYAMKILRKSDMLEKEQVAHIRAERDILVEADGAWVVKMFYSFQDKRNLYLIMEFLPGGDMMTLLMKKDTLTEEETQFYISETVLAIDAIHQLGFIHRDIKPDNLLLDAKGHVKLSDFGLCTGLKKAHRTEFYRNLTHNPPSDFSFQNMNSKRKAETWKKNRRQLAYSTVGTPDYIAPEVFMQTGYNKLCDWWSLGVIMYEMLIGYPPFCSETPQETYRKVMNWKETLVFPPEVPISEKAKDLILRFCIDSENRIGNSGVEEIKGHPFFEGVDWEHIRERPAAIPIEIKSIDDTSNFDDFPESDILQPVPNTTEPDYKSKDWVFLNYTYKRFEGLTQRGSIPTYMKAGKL
Chain of CLK3 (P49761 whole entry, looked up): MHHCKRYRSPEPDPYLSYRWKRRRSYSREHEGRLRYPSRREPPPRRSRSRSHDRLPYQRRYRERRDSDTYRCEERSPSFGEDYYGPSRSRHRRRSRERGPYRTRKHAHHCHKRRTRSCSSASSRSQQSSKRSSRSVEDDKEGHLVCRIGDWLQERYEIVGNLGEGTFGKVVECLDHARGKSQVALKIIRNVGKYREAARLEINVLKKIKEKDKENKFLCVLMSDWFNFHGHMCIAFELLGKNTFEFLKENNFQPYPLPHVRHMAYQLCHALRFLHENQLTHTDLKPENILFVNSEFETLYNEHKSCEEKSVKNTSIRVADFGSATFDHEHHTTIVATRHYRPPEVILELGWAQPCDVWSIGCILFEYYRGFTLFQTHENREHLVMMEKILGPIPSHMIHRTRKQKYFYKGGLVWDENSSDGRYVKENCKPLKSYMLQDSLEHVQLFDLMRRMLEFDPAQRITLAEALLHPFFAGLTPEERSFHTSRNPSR
Chain of UniProt P45984 (P45984 whole entry, looked up): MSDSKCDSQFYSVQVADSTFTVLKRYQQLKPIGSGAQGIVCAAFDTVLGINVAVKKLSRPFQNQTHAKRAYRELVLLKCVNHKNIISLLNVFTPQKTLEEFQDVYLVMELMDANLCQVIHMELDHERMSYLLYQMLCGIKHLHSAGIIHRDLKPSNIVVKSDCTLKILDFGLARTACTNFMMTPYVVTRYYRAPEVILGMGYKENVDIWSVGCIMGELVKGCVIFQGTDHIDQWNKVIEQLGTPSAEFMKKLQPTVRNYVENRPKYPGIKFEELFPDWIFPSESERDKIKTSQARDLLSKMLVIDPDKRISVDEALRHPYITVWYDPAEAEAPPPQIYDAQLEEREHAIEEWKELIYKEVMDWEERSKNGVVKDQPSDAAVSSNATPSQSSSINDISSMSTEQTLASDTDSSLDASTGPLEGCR

pIC50 (RPS6KA6) | pIC50 (TNIK; cell material: Lysate mix) | pIC50 (MET) | pIC50 (UniProt Q02750; cell material: Lysate mix) | pIC50 (UniProt Q00537; cell material: Lysate mix) | pIC50 (UniProt Q15303) | pIC50 (UniProt Q16512; cell material: Lysate mix) | pIC50 (PRPF4B) | pIC50 (UniProt Q9Y2H1; cell material: Lysate mix) | pIC50 (UniProt Q04912) | pIC50 (RPS6KA4; cell material: Lysate mix) | pIC50 (UniProt O95747; cell material: Lysate mix) | pIC50 (CLK3; cell material: Lysate mix) | pIC50 (IRAK3) | pIC50 (UniProt P16234) | pIC50 (CASK) | SMILES | other results
< 4.52 | < 4.52 | < 4.52 | < 4.52 | < 4.52 | < 4.52 | < 4.52 | < 4.52 | < 4.52 | < 4.52 | < 4.52 | < 4.52 | – | – | – | – | Cc1cc(Nc2cc(C(=O)NCCNC(=O)OC3CC/C=C/CCC3)nc(N3CCN(Cc4ccc(S(=O)(=O)F)cc4)CC3)n2)n[nH]1 (stereo not given) | pIC50 (SRPK1; cell material: Lysate mix): < 4.52; pIC50 (PRKACB; cell material: Lysate mix): < 4.52
< 4.52 | – | < 4.52 | – | < 4.52 | 4.99 | < 4.52 | – | 4.77 | < 4.52 | 4.84 | – | < 4.52 | < 4.52 | < 4.52 | < 4.52 | C#CCNC(=O)c1cc(Nc2cc(C)[nH]n2)nc(N2CCN(Cc3ccc(S(=O)(=O)F)cc3)CC2)n1 | pIC50 (UniProt P45984; cell material: Lysate mix): 5.34; pIC50 (KIT): < 4.52; pIC50 (CDC7): < 4.52
< 4.52 | < 4.52 | < 4.52 | < 4.52 | < 4.52 | < 4.52 | < 4.52 | < 4.52 | < 4.52 | < 4.52 | < 4.52 | < 4.52 | < 4.52 | < 4.52 | < 4.52 | < 4.52 | O=C(NCCNC(=O)c1cc(Nc2cc(C3CC3)[nH]n2)nc(N2CCN(Cc3ccc(S(=O)(=O)F)cc3)CC2)n1)OC1CC/C=C/CCC1 (stereo not given) | pIC50 (SRPK1; cell material: Jurkat cells): < 4.52; pIC50 (CLK3; cell material: Jurkat lysate): < 4.52; pIC50 (UniProt Q8NEB9): < 4.52; pIC50 (TNIK; cell material: Jurkat cells): 5.6; pIC50 (TNIK; cell material: Jurkat lysate): < 4.52; pIC50 (PRKACB; cell material: Jurkat cells): < 4.52; pIC50 (PRKACB; cell material: Jurkat lysate): < 4.52; pIC50 (UniProt Q02750; cell material: Jurkat lysate): < 4.52; pIC50 (UniProt P45984; cell material: Jurkat cells): 5.7; pIC50 (UniProt P45984; cell material: Jurkat lysate): < 4.52; pIC50 (UniProt Q00537; cell material: Jurkat cells): 5.68; pIC50 (UniProt Q00537; cell material: Jurkat lysate): < 4.52; pIC50 (AXL): 4.72; pIC50 (UniProt Q16512; cell material: Jurkat lysate): < 4.52; pIC50 (AKT2): < 4.52; pIC50 (UniProt Q9Y2H1; cell material: Jurkat cells): 5.79; pIC50 (RPS6KA4; cell material: Jurkat cells): 5.8; pIC50 (RPS6KA4; cell material: Jurkat lysate): < 4.52; pIC50 (UniProt O95747; cell material: Jurkat cells): 5.3; pIC50 (UniProt O95747; cell material: Jurkat lysate): < 4.52
